Test results reported in patent publication US20260137687A1, “GTPase INHIBITORS AND USES THEREOF” (The Regents of The University of California, priority 2022, published 2026).

Columns and labels:
K-Ras(G12R) = K-Ras(G12R) (Homo sapiens, UniProt P01116, G12R); experiment: Lysate target engagement assay (anti-Ras immunoblot); format: binding; set-up: pMSCV-Puro plasmids containing full length human KRAS genes (G12R); expressed in transfected cells; host or cells: Ba/F3 (mouse) transduced with pMSCV-Puro KRAS(G12R); lysate
Experimental: For co-treatment with recombinant K-Ras(G12R), Ba/F3(G12R) cells were lysed with NP-40 buffer and adjusted to 1.5 mg/mL. A 0.1 μM solution of recombinant K-Ras(G12R) was prepared in NP-40 buffer. 18 μL of Ba/F3 lysate were added to 4 μL of a 0.5 mM solution of 3 containing 10% DMSO in NP-40 buffer or DMSO as control. 18 μL of recombinant K-Ras(G12R) solution or NP-40 was added and the mixtures were incubated for 16 h at 23° C. Subsequently samples were mixed with 5×SDS Loading Dye and heated at 95° C. for 5 min.
Unless otherwise noted, SDS-PAGE was run with Novex 12% Bis-Tris gel (Invitrogen) in MES running buffer (Invitrogen) at 200 V for 60 min following the manufacturer's instructions. Protein bands were transferred onto 0.2-μm nitrocellulose membranes (Bio-Rad) using a wet-tank transfer apparatus (Bio-Rad Criterion Blotter) in 1×TOWBIN buffer with 10% methanol at 75V for 45 min. Membranes were blocked in 5% BSA-TBST for 1 h at 23° C. Primary antibody binding was performed with the indicated antibodies diluted in 5% BSA-TBST at 4° C. for at least 16 h. After washing the membrane three times with TBST (5 min each wash), secondary antibodies (goat anti-rabbit IgG-IRDye 800 and goat anti-mouse IgG-IRDye 680, Li-COR) were added as solutions in 5% skim milk-TBST at the dilutions recommended by the manufacturer. Secondary antibody binding was allowed to proceed for 1 h at 23° C. The membrane was washed three times with TBST (5 min each wash) and imaged on a Li-COR Odyssey fluorescence imager.

[1] = Stability in aqueous buffers; format: physicochemical; details: over a range of pH
K-Ras(G12R)·GDP = target: T1, K-Ras(G12R)·GDP (Homo sapiens, UniProt P01116, G12R); experiment: Intact protein mass spectrometry, covalent modification; format: binding; details: for reaction rate with K-Ras(G12R)·GDP: 50 μM
T1 construct: human K-Ras (G12R, aa 1-169); 6xHis tag + TEV cleavage site (N, cleaved yes); made in house; host or cells: E. coli BL21(DE3)
Experimental: (§1) Purified K-Ras variants (4 μM final) were incubated with compounds at 50 or 100 μM (1% v/v DMSO final) in 20 mM HEPES pH 7.5, 150 mM NaCl, 1 mM MgCl2 in a total volume of 150 μL. After the noted time, the samples were analyzed by intact protein LC/MS using a Waters Xevo G2-XS system equipped with an Acquity UPLC BEH C4 1.7 μm column. The mobile phase was a linear gradient of 5-95% acetonitrile/water+0.05% formic acid. The spectra were processed using QuantLynx, giving the ion counts observed for the most abundant species. For assays conducted under an alternate pH, the HEPES buffer was replaced with one of the following buffers (maintaining 150 mM NaCl and 1 mM MgCl2): 20 mM MES pH 6 or 20 mM Tris pH 9.

K-Ras G12D = K-Ras G12D (Homo sapiens, UniProt P01116, G12D); experiment: as above; format: binding; details: extended incubation at pH 7.5; 50 μM, 16 h
Experimental: as §1

K-Ras(G12R)·GppNHp = target: T2, K-Ras(G12R)·GppNHp (Homo sapiens, UniProt P01116, C118S/C51S/C80L/G12R); experiment: as above; format: binding; details: after 72 h; 50 μM
T2 construct: human K-Ras G12R Cyslight (G12R/C51S/C80L/C118S, aa 1-169); 6xHis tag + TEV cleavage site (N, cleaved yes); made in house; host or cells: E. coli BL21(DE3)
Experimental: as §1

K-Ras Q61K = K-Ras Q61K (Homo sapiens, UniProt P01116, Q61K); experiment: as above; format: binding; details: extended incubation at pH 7.5; 50 μM, 16 h
Experimental: as §1

K-Ras Q61R = K-Ras Q61R (Homo sapiens, UniProt P01116, Q61R); experiment: as above; format: binding; details: extended incubation at pH 7.5; 50 μM, 16 h
Experimental: as §1

wildtype (WT) K-Ras·GDP = target: T3, wildtype (WT) K-Ras·GDP (Homo sapiens, UniProt P01116); experiment: as above; format: binding; details: extended incubation at pH 7.5; 50 μM
T3 construct: human K-Ras (wildtype, aa 1-169); 6xHis tag + TEV cleavage site (N, cleaved yes); made in house; host or cells: E. coli BL21(DE3)
Experimental: as §1

K-Ras Q61L = K-Ras Q61L (Homo sapiens, UniProt P01116, Q61L); experiment: as above; format: binding; details: extended incubation at pH 7.5; 50 μM, 16 h
Experimental: as §1

K-Ras G12V = K-Ras G12V (Homo sapiens, UniProt P01116, G12V); experiment: as above; format: binding; details: extended incubation at pH 7.5; 50 μM, 16 h
Experimental: as §1

In the case of `CC(=O)C(O)(O)C(=O)N1[C@@H]2CC[C@H]1CN(c1nc(OCC34CCCN3CCC4)nc3c(F)c(-c4cccc5cccc(Cl)c45)ncc13)C2` [compound 3, 1-((1R,5S)-3-(7-(8-chloronaphthalen-1-yl)-8-fluoro-2-((tetrahydro-1H-pyrrolizin-7a(5H)-yl)methoxy)pyrido[4,3-d]pyrimidin-4-yl)-3,8-diazabicyclo[3.2.1]octan-8-yl)-2,2-dihydroxybutane-1,3-dione], the “modification of exogenous recombinant K-Ras(G12R)·GDP added to lysate” value (K-Ras(G12R); after 16 h of incubation) is reported as “complete modification”, the “modification of endogenous K-Ras(G12R) in BaF3/K-Ras(G12R) lysates” value (K-Ras(G12R); lysate not pre-loaded with GDP) is reported as “did not detect any modification” and the “modification of endogenous K-Ras(G12R) in BaF3/K-Ras(G12R) lysates” value (K-Ras(G12R); lysates pre-loaded with excess GDP) is reported as “covalent modification”. The “stability in aqueous buffers” value [1] was “stable”, the “modification of surface exposed arginines of K-Ras” value (K-Ras(G12R)·GDP) was “not modified” and the “covalent adduct formation with recombinant K-Ras(G12R)·GDP” value (K-Ras(G12R)·GDP; 100 μM compound, pH 7.5, 23° C., adducts +656 Da and +638 Da) was “stoichiometric covalent adduct”. The “reaction rate with K-Ras(G12R)·GDP” value (K-Ras(G12R)·GDP; pH 6) was “greatly reduced rate”, the “reaction rate with K-Ras(G12R)·GDP” value (K-Ras(G12R)·GDP; pH 8) was “reached maximum” and the “reaction rate with K-Ras(G12R)·GDP” value (K-Ras(G12R)·GDP; pH 9) was “did not further increase”. For the same molecule, the “reversibility of adduct formation” value (K-Ras(G12R)·GDP; purified adduct incubated at pH 7.5 for 7 days at 23° C.) was “irreversible”, the “covalent modification of K-Ras G12D” value (K-Ras G12D) was “did not modify” and the “modification of K-Ras(G12R)·GppNHp” value (K-Ras(G12R)·GppNHp) was less than 5%. The “covalent modification of K-Ras Q61K” value (K-Ras Q61K) was “did not modify”, the “covalent modification of K-Ras Q61R” value (K-Ras Q61R) was “did not modify” and the “covalent modification of wildtype K-Ras·GDP” value (wildtype (WT) K-Ras·GDP) was “did not modify”. The “covalent modification of K-Ras Q61L” value (K-Ras Q61L) was “did not modify” and the “covalent modification of K-Ras G12V” value (K-Ras G12V) was “did not modify”.
